Read-outs that look alike come from different tables or passages of the source.
Assays:
human NUDT5 = target: T1, human NUDT5 (Homo sapiens, UniProt Q9UKK9); experiment: enzyme-coupled malachite green assay (MG assay), ADPR hydrolysis; format: biochemical; settings: for IC50: NUDT5, ADPR substrate
T1 construct: His-tag (N); made in house; host or cells: E. coli BL21 (DE3) R3 pRARE2
Description: We next sought to develop small molecule NUDT5 inhibitors to further probe the role of NUDT5 in ADPR metabolism. A high-throughput, screening-compatible NUDT5 inhibition assay was established using slight modifications to the aforementioned MG procedure (Fig. 2a)[15],[27]. Briefly, ADPR, NUDT5 and calf intestinal alkaline phosphatase (CIP) were combined in a coupled enzymatic assay, as described in the online methods. In turn, ADPR was hydrolyzed to AMP and R5P by NUDT5, and the released R5P was further degraded to ribose and inorganic phosphate (Pi) by CIP. Free Pi was subsequently detected using the malachite green reagent. The screen was conducted using a combination of the Chemical Biology Consortium of Sweden (CBCS) primary screening set and several commercial libraries from Enamine, TimTec, Maybridge and ChemDiv. In total, ~72 000 distinct chemical entities were screened for their potential inhibition of NUDT5 at a concentration of 10 µM (Supplementary Table 1, Supplementary Fig. 2a, b). Execution of this screening campaign was split between two different occasions. The screening performance in the two screening campaigns was excellent (average z´ factors of 0.87 and 0.85, Supplementary Fig. 2c), resulting in a hit limit as defined by the average and three standard deviations of the library compound responses of 10.1 and 18.4% inhibition, respectively (Supplementary Table 1, Supplementary Fig. 2a, b). This translated to 53 and 475 hits (0.3 and 0.8% hit rate, respectively), yielding 528 total hits from the 2 separate screening occasions.
Activity of NUDT5 and MTH1 with a panel of potential substrates [2-OH-ATP, 2-OH-dATP, 8-oxo-dGDP, GDP and 8-oxo-GTP (Jena Biosciences), 8-oxo-dGTP (TriLink Biotechnologies), dATP (ThermoFisher Scientific), dGTP, GTP and ADPR (Sigma-Aldrich)] was assessed in reaction buffer (100 mM Tris Acetate pH 7.5, 40 mM NaCl, 10 mM Mg Acetate) at 22 °C. For ADPR, alkaline phosphatase from bovine intestinal mucosa (10 U/ml; Sigma-Aldrich) was added as coupled enzyme, while other substrates were coupled to E. coli pyrophosphatase (0.2 U/mL, Sigma-Aldrich). After 30 min incubation with shaking, formed inorganic phosphate was detected by addition of malachite green reagent. Absorbance at 630 nm was read after 15 min incubation with shaking using a Hidex Sense plate reader. The potency of NUDT5 inhibitors was assessed similarly as above (and in the screening campaign) by monitoring ADPR hydrolysis; details are in the Supplementary Information.
Small molecule library composition
The screen for NUDT5 inhibitors was conducted at Chemical Biology Consortium Sweden (www.cbcs.se). Two screening campaigns completed in August 2012 and in March 2013 respectively comprised a combination of in-house and commercially available libraries, amounting to a total of 75679 compounds. The commercial compounds originate from Enamine, TimTec, MayBridge and ChemDiv. The in-house libraries were donated by Biovitrum AB, Sweden (the origin and composition is described previously)2. For long-term storage, the compounds are kept frozen at - 20°C as 10 mM solutions in dimethyl sulfoxide (DMSO) under low humidity conditions in REMP 96 Storage Tube Racks in a REMP Small-Size Store™. To facilitate screening an aliquot of the stock solutions have been transferred to Labcyte 384 LDV plates (LP-0200) to enable dispensing using an Echo 550™ acoustic liquid handler (LabCyte). For both screening campaigns 40 nl of the compound solutions were dispensed directly into columns 1-22 of the 384-well assay plates (Nunc 242757), while columns 23 and 24 were reserved for controls as outlined below. The plates were sealed with a Peelable Aluminium seal (Agilent 24210-001) using a PlateLoc thermal microplate sealer (Agilent) and kept at room temperature until used. The final compound concentration in the screen was 10 µM with a final DMSO concentration of […]
Enzymatic assay applied for screening and hit confirmation […]

purified NUDT5 = target: T2, purified NUDT5 (Homo sapiens, UniProt Q9UKK9); experiment: differential scanning fluorimetry (DSF); format: binding; settings: 20 µM compound; for Tm: DMSO 74; for ΔTm at 20 µM: read-out: shift in melting temperature (Tm)
T2 construct: His-tag (N); made in house; host or cells: E. coli BL21 (DE3) R3 pRARE2
Procedure: Differential scanning fluorimetry (DSF)[5],[47] was performed with 5 µM purified NUDT5, 20 µM NUDT5 inhibitor and 5x Sypro Orange added per well added to a 96-well PCR plate. Each experiment was performed in duplicate. Temperature gradients from 25 to 95 °C (increasing at a rate of 1 °C per minute) were completed with readings every minute on a CFX96 Real-Time PCR machine (Bio-Rad). Melting temperatures were determined as the minimum of the negative first derivative plots with CFX Maestro software (Bio-Rad).

solubility = format: physicochemical
[1] = target: T3, NUDT5 in intact HL-60 cells (Homo sapiens, UniProt Q9UKK9); experiment: intact cell CETSA; format: cell-based; settings: 20 µM, 83 °C
T3 construct: endogenous in cells; host or cells: HL-60
Procedure: For CETSA experiments with cells treated in culture, 1 × 10^6 HL-60 were treated with DMSO (0.1 % v/v final) or 20 µM compound for 3 h at 37 °C and 5% CO2 in a humidified incubator. T47D^WT cells were treated instead with 80 µM TH1659, 15 µM TH5423/5424 and 1.5 µM TH5427. The cells were harvested, washed twice with PBS and resuspended in TBS with protease inhibitors, as above. Heating was identical as before, except that immediately following heating, the cell suspensions were snap frozen in a dry ice/ethanol bath and freeze-thawed, as previously, to lyse cells. Centrifugation at 20 000 × g for 20 min at 4 °C removed cellular debris and protein aggregates, and lysates were prepared for western blotting.

[2] = target: T4, NUDT5 in HL-60 cell lysates (Homo sapiens, UniProt Q9UKK9); experiment: cell lysate CETSA (HT-CETSA); format: binding; settings: 20 µM, 83 °C
T4 construct: endogenous in cells; host or cells: HL-60
Procedure: Target engagement in cells was determined by the cellular thermal shift assay (CETSA)[29]. Briefly, cell lysate thermal shift assays were performed with 1 × 10^6 HL-60 cells per temperature/condition. Cells were collected and washed once with PBS and resuspended in TBS with protease inhibitor cocktail (Mini cOmplete, EDTA-free, Roche) at 60 µL/1 × 10^6 cells. The cells were then aliquoted and lysed by freeze-thawing three times with 3-min incubations (3x, 3 min.+3 min.) using an ethanol/dry ice bath and water bath at 37 °C. The lysates were then centrifuged at 20,000×g for 20 min at 4 °C to remove cellular debris. Supernatants were then transferred to PCR strip tubes and treated with 0.5 µL DMSO (0.8% v/v final) or 20 µM inhibitor for 20 min at room temperature. Lysates with compounds were heated at the indicated temperature in a Veriti Thermal Cycler (Applied Biosystems) for 3 min, then cooled for another 3 min at room temperature. They were then centrifuged at 20 000 × g for 20 min at 4 °C to pellet protein aggregates and 45 µL was removed and prepared for western blotting analysis.

[3] = read-out: MG assay IC50 (Biochemical IC50)

SMILES: O=c1cc(-c2ccccc2)oc2ccccc12 [flavone, reference compound]
- IC50 (human NUDT5; read-out: MG assay IC50): > 100000 nM

SMILES: COc1ccc2c(c[n+](C)c3c4cc5c(cc4ccc23)OCO5)c1OC [chelerythrine, reference compound]
- IC50 (human NUDT5; read-out: MG assay IC50): > 100000 nM

SMILES: O=c1cc(N2CCOCC2)oc2c(-c3ccccc3)cccc12 [LY294002, reference compound]
- IC50 (human NUDT5; read-out: MG assay IC50): > 100000 nM

SMILES: Cc1cccc(-c2nnc(Cn3c(N(C)C)nc4c3c(=O)n(C)c(=O)n4C)o2)c1 [TH1713]
- Tm (purified NUDT5): 79 °C
- ΔTm at 20 µM (purified NUDT5): 5 °C
- fold greater potency over TH1167 (human NUDT5; MG assay): more than 8 fold
- IC50 (human NUDT5; [3]): 70 nM
- solubility (solubility): very poor solubility
- NUDT5 stabilization in intact cells [1]: only TH1533 showed activity by CETSA in intact cells

SMILES: Cc1cccc(-c2nnc(Cn3cnc4c3c(=O)n(C)c(=O)n4C)o2)c1 [TH1167]
- IC50 (human NUDT5; read-out: MG assay IC50): 580 nM
- NUDT5 stabilization in cell lysates [2]: did not show sufficient target engagement
- NUDT5 stabilization in intact cells [1]: did not show sufficient target engagement

SMILES: Cn1c(=O)c2c(ncn2Cc2nnc(-c3ccc(Cl)c(Cl)c3)o2)n(C)c1=O [TH1533]
- Tm (purified NUDT5): 79 °C
- ΔTm at 20 µM (purified NUDT5): 5 °C
- MG assay potency compared with TH1713 (human NUDT5): equipotent with TH1713
- IC50 (human NUDT5; [3]): 70 nM
- solubility (solubility): very poor solubility
- NUDT5 stabilization in intact cells [1]: showed activity by CETSA in intact cells

SMILES: O=C(O)/C=C/c1ccc(O)cc1 [p-coumaric acid, reference compound]
- IC50 (human NUDT5; read-out: MG assay IC50): > 100000 nM

From PMC5772648, “Targeted NUDT5 inhibitors block hormone signaling in breast cancer cells” (Nature Communications, 2018)
